PMC10545567, “A complex bearing TSPO PIGA ligand coordinated to the [Au(PEt3)]^+ pharmacophore is highly cytotoxic against ovarian cancer cells” (Biometals, 2023)

Molecular target: T1, Thioredoxin reductase (TrxR) (Rattus norvegicus, UniProt O89049)
T1 construct: gene Txnrd1
Test: DTNB reduction assay with isolated rat liver TrxR, […] nm, […] min preincubation with NADPH

T1 sequence (O89049 whole entry): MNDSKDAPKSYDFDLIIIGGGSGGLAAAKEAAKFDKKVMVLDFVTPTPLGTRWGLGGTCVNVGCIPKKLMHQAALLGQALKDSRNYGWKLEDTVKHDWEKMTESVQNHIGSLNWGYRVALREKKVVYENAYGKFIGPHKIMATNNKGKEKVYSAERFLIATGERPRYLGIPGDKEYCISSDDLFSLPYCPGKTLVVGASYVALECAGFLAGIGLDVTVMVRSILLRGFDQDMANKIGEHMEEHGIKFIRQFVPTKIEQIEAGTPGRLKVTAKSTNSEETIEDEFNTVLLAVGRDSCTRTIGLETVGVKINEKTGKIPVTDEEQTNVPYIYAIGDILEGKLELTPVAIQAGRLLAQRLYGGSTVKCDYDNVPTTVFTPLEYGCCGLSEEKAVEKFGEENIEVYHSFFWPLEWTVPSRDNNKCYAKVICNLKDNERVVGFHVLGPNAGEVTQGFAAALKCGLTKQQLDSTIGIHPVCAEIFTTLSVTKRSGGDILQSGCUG

Row | Compound | IC50
1 | CC[P+](CC)(CC)[Au-][Cl] [compound 5, Et3PAuCl] | 0.0511 µM
2 | CCCCCCN(CCCCCC)C(=O)C(=O)c1c(-c2ccccc2)[n]([Au-][P+](CC)(CC)CC)c2ccccc12 [compound 1, [N,N-di-n-hexyl-2-(2-phenyl-1-indol-kN-3-yl)glyoxylamido]-AuPEt3] | 0.0592 µM
